Where two headings read alike, the source gives them in different places.
CN(C)CCCN1c2ccccc2Sc2ccc(Cl)cc21.O=C1CN2CC[O][Ge]([C]34CC5CC(CC(C5)C3)C4)([O]1)[O]C(=O)C2
Expansion of Effect Spectrum for the Complex Medicament (Table 5): - . -

CN(C)CCC=C1c2ccccc2Sc2ccc(Cl)cc21.C[CH2][Ge]12[O]CCN(CC(=O)[O]1)CC(=O)[O]2
Expansion of Effect Spectrum for the Complex Medicament (Table 5): - . -

O=C1CN2CC[O][Ge]([C]34CC5CC(CC(C5)C3)C4)([O]1)[O]C(=O)C2.O=C1NC(=O)C(c2ccccc2)(c2ccccc2)N1
Expansion of Effect Spectrum for the Complex Medicament (Table 5): - . -

CCC1(c2ccccc2)C(=O)NCNC1=O.O=C1CN2CC[O][Ge]([C]34CC5CC(CC(C5)C3)C4)([O]1)[O]C(=O)C2
Expansion of Effect Spectrum for the Complex Medicament (Table 5): - . -

N[C@@H](Cc1ccc(O)c(O)c1)C(=O)O.O=C1CN2CC[O][Ge]([C]34CC5CC(CC(C5)C3)C4)([O]1)[O]C(=O)C2
Expansion of Effect Spectrum for the Complex Medicament (Table 5): - . -

CN1CCN(CCCN2c3ccccc3Sc3ccc(Cl)cc32)CC1.[CH3][Ge]12[O]CCN(CC(=O)[O]1)CC(=O)[O]2
Expansion of Effect Spectrum for the Complex Medicament (Table 5): - . -

NC12CC3CC(CC(C3)C1)C2.[CH3][Ge]12[O]CCN(CC(=O)[O]1)CC(=O)[O]2
Expansion of Effect Spectrum for the Complex Medicament (Table 4): - . -

O=C1CN=C(c2ccccc2Cl)c2cc(Br)ccc2N1.[CH3][Ge]12[O]C(=O)CN(CC(=O)[O]1)CC(=O)[O]2
Expansion of Effect Spectrum for the Complex Medicament (Table 5): - . -

O=C1CN2CC[O][Ge]([C]34CC5CC(CC(C5)C3)C4)([O]CC2)[O]1.O=C1CN=C(c2ccccc2Cl)c2cc(Br)ccc2N1
Expansion of Effect Spectrum for the Complex Medicament (Table 5): - . -

CCC1(c2ccccc2)C(=O)NC(=O)NC1=O.O=C1CN2CC[O][Ge]([C]34CC5CC(CC(C5)C3)C4)([O]1)[O]C(=O)C2
Expansion of Effect Spectrum for the Complex Medicament (Table 5): - . -

Cc1cn([C@H]2C[C@H](N=[N+]=[N-])[C@@H](CO)O2)c(=O)[nH]c1=O.[CH3][Ge]12[O]CCN(CC(=O)[O]1)CC(=O)[O]2
Expansion of Effect Spectrum for the Complex Medicament (Table 4): - . -

CN(C)CCCN1c2ccccc2Sc2ccc(Cl)cc21.[OH][Ge]12[O]CCN(CC[O]1)CC[O]2 [Aminazinum OGC (R = OH)]
Expansion of Effect Spectrum for the Complex Medicament (Table 5): - . -

CN(C)CCCN1c2ccccc2Sc2ccc(Cl)cc21.[SH][Ge]12[O]CCN(CC[O]1)CC[O]2 [Aminazinum OGC (R = SH)]
Expansion of Effect Spectrum for the Complex Medicament (Table 5): - . -

CN(C)CCC=C1c2ccccc2Sc2ccc(Cl)cc21.[OH][Ge]12[O]CCN(CC[O]1)CC[O]2 [Chlorprotexenum OGC (R = OH)]
Expansion of Effect Spectrum for the Complex Medicament (Table 5): - . -

CN(C)CCC=C1c2ccccc2Sc2ccc(Cl)cc21.[SH][Ge]12[O]CCN(CC[O]1)CC[O]2 [Chlorprotexenum OGC (R = SH)]
Expansion of Effect Spectrum for the Complex Medicament (Table 5): - . -

CN1C(=O)CN=C(c2ccccc2)c2cc(Cl)ccc21.[OH][Ge]12[O]CCN(CC[O]1)CC[O]2 [Diazepam OGC (R = OH)]
Expansion of Effect Spectrum for the Complex Medicament (Table 5): - . -

CN1C(=O)CN=C(c2ccccc2)c2cc(Cl)ccc21.[SH][Ge]12[O]CCN(CC[O]1)CC[O]2 [Diazepam OGC (R = SH)]
Expansion of Effect Spectrum for the Complex Medicament (Table 5): - . -

[CH3][Ge]12[O]CCN(CC(=O)[O]1)CC(=O)[O]2.c1ccc(Cc2nc3ccccc3[nH]2)cc1 [Dibasolum OGC (R = CH3, R1R2 = R5R6 = O)]
Expansion of Effect Spectrum for the Complex Medicament (Table 4): - . -

[OH][Ge]12[O]CCN(CC[O]1)CC[O]2.c1ccc(Cc2nc3ccccc3[nH]2)cc1 [Dibasolum OGC (R = OH)]
Expansion of Effect Spectrum for the Complex Medicament (Table 4): - . -

[SH][Ge]12[O]CCN(CC[O]1)CC[O]2.c1ccc(Cc2nc3ccccc3[nH]2)cc1 [Dibasolum OGC (R = SH)]
Expansion of Effect Spectrum for the Complex Medicament (Table 4): - . -

O=C1NC(=O)C(c2ccccc2)(c2ccccc2)N1.[OH][Ge]12[O]CCN(CC[O]1)CC[O]2 [Dipheninum OGC (R = OH)]
Expansion of Effect Spectrum for the Complex Medicament (Table 5): - . -

CCC1(c2ccccc2)C(=O)NCNC1=O.[OH][Ge]12[O]CCN(CC[O]1)CC[O]2 [Hexamidinum OGC (R = OH)]
Expansion of Effect Spectrum for the Complex Medicament (Table 5): - . -

C[CH2][Ge]12[O]CCN(CC[O]1)CC(=O)[O]2.O=c1[nH]c(=O)n([C@H]2C[C@H](O)[C@@H](CO)O2)cc1I [Idoxuridine OGC (R = C2H5, R1,R2 = O)]
Expansion of Effect Spectrum for the Complex Medicament (Table 4): - . -

O=c1[nH]c(=O)n(C2CC(O)C(CO)O2)cc1I.[OH][Ge]12[O]CCN(CC[O]1)CC[O]2 (stereo not shown) [Idoxuridine OGC (R = OH)]
Expansion of Effect Spectrum for the Complex Medicament (Table 4): - . -

O=c1[nH]c(=O)n([C@H]2C[C@H](O)[C@@H](CO)O2)cc1I.[SH][Ge]12[O]CCN(CC[O]1)CC[O]2 [Idoxuridine OGC (R = SH)]
Expansion of Effect Spectrum for the Complex Medicament (Table 4): - . -

N[C@@H](Cc1ccc(O)c(O)c1)C(=O)O.[OH][Ge]12[O]CCN(CC[O]1)CC[O]2 [Levodopa OGC (R = OH)]
Expansion of Effect Spectrum for the Complex Medicament (Table 5): - . -

CN1CCN(CCCN2c3ccccc3Sc3ccc(Cl)cc32)CC1.[OH][Ge]12[O]CCN(CC[O]1)CC[O]2 [Meterazinum OGC (R = OH)]
Expansion of Effect Spectrum for the Complex Medicament (Table 5): - . -

CN1CCN(CCCN2c3ccccc3Sc3ccc(Cl)cc32)CC1.[SH][Ge]12[O]CCN(CC[O]1)CC[O]2 [Meterazinum OGC (R = SH)]
Expansion of Effect Spectrum for the Complex Medicament (Table 5): - . -

CN1CCN=C(c2ccccc2)c2cc(Cl)ccc21.[CH3][Ge]12[O]CCN(CC(=O)[O]1)CC(=O)[O]2 [Mezapamun OGC (R = CH3) R1R2 = R5R6 = O)]
Expansion of Effect Spectrum for the Complex Medicament (Table 5): - . -

CN1CCN=C(c2ccccc2)c2cc(Cl)ccc21.[CH3][Ge]([CH3])([CH3])[O][Ge]12[O]CCN(CC[O]1)CC[O]2 [Mezapamun OGC (R = OGeMe3)]
Expansion of Effect Spectrum for the Complex Medicament (Table 5): - . -

CN1CCN=C(c2ccccc2)c2cc(Cl)ccc21.[OH][Ge]12[O]CCN(CC[O]1)CC[O]2 [Mezapamun OGC (R = OH)]
Expansion of Effect Spectrum for the Complex Medicament (Table 5): - . -

CN1CCN=C(c2ccccc2)c2cc(Cl)ccc21.C[Si](C)(C)[O][Ge]12[O]CCN(CC[O]1)CC[O]2 [Mezapamun OGC (R = OSiMe3)]
Expansion of Effect Spectrum for the Complex Medicament (Table 5): - . -

CN1CCN=C(c2ccccc2)c2cc(Cl)ccc21.O=C1CN2CC[O][Ge]([C]34CC5CC(CC(C5)C3)C4)([O]CC2)[O]1 [Mezapamun OGC (R = adamantyl, R1R2 = O)]
Expansion of Effect Spectrum for the Complex Medicament (Table 5): - . -

NC12CC3CC(CC(C3)C1)C2.[OH][Ge]12[O]CCN(CC[O]1)CC[O]2 [Midantanum OGC (R = OH)]
Expansion of Effect Spectrum for the Complex Medicament (Table 4): - . -
Expansion of Effect Spectrum for the Complex Medicament (Table 5): - . -

NC12CC3CC(CC(C3)C1)C2.[SH][Ge]12[O]CCN(CC[O]1)CC[O]2 [Midantanum OGC (R = SH)]
Expansion of Effect Spectrum for the Complex Medicament (Table 4): - . -
Expansion of Effect Spectrum for the Complex Medicament (Table 5): - . -

O=C1CN=C(c2ccccc2Cl)c2cc(Br)ccc2N1.[OH][Ge]12[O]CCN(CC[O]1)CC[O]2 [Phenazepamum OGC (R = OH)]
Expansion of Effect Spectrum for the Complex Medicament (Table 5): - . -

CCC1(c2ccccc2)C(=O)NC(=O)NC1=O.[SH][Ge]12[O]CCN(CC[O]1)CC[O]2 [Phenobarbitalum OGC(R = SH)]
Expansion of Effect Spectrum for the Complex Medicament (Table 5): - . -

CC(N)C12CC3CC(CC(C3)C1)C2.O=C1CN2CC[O][Ge]([OH])([O]CC2)[O]1 (stereo not shown) [Remantadinum OGC (R = OH, R1R2 = O)]
Expansion of Effect Spectrum for the Complex Medicament (Table 4): - . -

CC(N)C12CC3CC(CC(C3)C1)C2.[SH][Ge]12[O]CCN(CC[O]1)CC[O]2 (stereo not shown) [Remantadinum OGC (R = SH)]
Expansion of Effect Spectrum for the Complex Medicament (Table 4): - . -

Nc1ncnc2c1ncn2C1OC(CO)C(O)C1O.O=C1CN2CC[O][Ge]([OH])([O]CC2)[O]1 (stereo not shown) [Vidarabinum OGC (R = OH, R1,R2 = O)]
Expansion of Effect Spectrum for the Complex Medicament (Table 4): - . -

Nc1ncnc2c1ncn2C1OC(CO)C(O)C1O.[OH][Ge]12[O]CCN(CC[O]1)CC[O]2 (stereo not shown) [Vidarabinum OGC(R = OH)]
Expansion of Effect Spectrum for the Complex Medicament (Table 4): - . -

CC1CN2CC[O][Ge]([OH])([O]CC2)[O]1.Nc1ncnc2c1ncn2C1OC(CO)C(O)C1O (stereo not shown) [Vidarabinum OGC(R = OH, R1 = CH3)]
Expansion of Effect Spectrum for the Complex Medicament (Table 4): - . -

C[CH2][Ge]12[O]CCN(CC[O]1)CC(=O)[O]2.Nc1nc2c(ncn2COCCO)c(=O)[nH]1 [Virolex OGC (R = C2H5, R1, R2 = O)]
Expansion of Effect Spectrum for the Complex Medicament (Table 4): - . -

Cc1cn([C@H]2C[C@H](N=[N+]=[N-])[C@@H](CO)O2)c(=O)[nH]c1=O.[CH3][Ge]([CH3])([CH3])[O][Ge]12[O]CCN(CC[O]1)CC[O]2 [Zidovudine OGC (R = OGeMe3)]
Expansion of Effect Spectrum for the Complex Medicament (Table 4): - . -

Cc1cn([C@H]2C[C@H](N=[N+]=[N-])[C@@H](CO)O2)c(=O)[nH]c1=O.[OH][Ge]12[O]CCN(CC[O]1)CC[O]2 [Zidovudine OGC (R = OH)]
Expansion of Effect Spectrum for the Complex Medicament (Table 4): - . -

C[Si](C)(C)[O][Ge]12[O]CCN(CC[O]1)CC[O]2.Cc1cn([C@H]2C[C@H](N=[N+]=[N-])[C@@H](CO)O2)c(=O)[nH]c1=O [Zidovudine OGC (R = OSiMe3)]
Expansion of Effect Spectrum for the Complex Medicament (Table 4): - . -

Cc1cn([C@H]2C[C@H](N=[N+]=[N-])[C@@H](CO)O2)c(=O)[nH]c1=O.[SH][Ge]12[O]CCN(CC[O]1)CC[O]2 [Zidovudine OGC (R = SH)]
Expansion of Effect Spectrum for the Complex Medicament (Table 4): - . -
